Results: ChEMBL document CHEMBL4765241, “Identification and Preclinical Pharmacology of ((1 R,3 S)-1-Amino-3-(( S)-6-(2-methoxyphenethyl)-5,6,7,8-tetrahydronaphthalen-2-yl)cyclopentyl)methanol (BMS-986166): A Differentiated Sphingosine-1-phosphate Receptor 1 (S1P) Modulator Advanced into Clinical Trials” (J Med Chem, 2019)
Active and inactive are the calls of the source. The rule behind the calls is not given here.

Columns and labels:
[1] = Pulmonary toxicity in Lewis rat assessed as elevation of BAL protein level at 2 mg/kg by advia1800 chemistry analyzer; assay type: organism-based; settings: in vivo
[2] = tested on: Rattus norvegicus; experiment: Reduction in circulating lymphocytes in Lewis rat blood assessed as effective dose after oral dosing measured at 24 hrs by hematology analyzer based analysis; assay type: functional
[3] = tested on: Rattus norvegicus; experiment: Reduction in circulating lymphocytes in Lewis rat blood at 2 mg/kg, po measured at 24 hrs by hematology analyzer based analysis; assay type: functional; parameters: scale not given: the % may be the effect or the level left
[4] = Drug metabolism in Lewis rat blood assessed as concentration of parent compound at 2 mg/kg, po measured at 4 hrs by LC-MS/MS analysis; assay type: ADME, organism-based; settings: read-out: Ct
[5] = Ratio of drug metabolism in Lewis rat blood assessed as phosphate ester metabolite to parent drug at 2 mg/kg, po measured at 24 hrs by LC-MS/MS analysis; assay type: ADME, organism-based; settings: in vivo
[6] = Drug metabolism in Lewis rat blood assessed as concentration of parent compound at 2 mg/kg, po measured at 24 hrs by LC-MS/MS analysis; assay type: ADME, organism-based; settings: read-out: Ct
[7] = Half-life in Lewis rat at 2 mg/kg, po measured over 72 hrs by LC-MS/MS analysis; assay type: ADME, organism-based; settings: in vivo
[8] = Pulmonary toxicity in Lewis rat assessed as elevation of BAL protein level at 10 mg/kg by advia1800 chemistry analyzer; assay type: organism-based; settings: in vivo
[9] = tested on: Rattus norvegicus; experiment: Reduction in circulating lymphocytes in Lewis rat blood at 2 mg/kg, po measured at 4 hrs by hematology analyzer based analysis; assay type: functional; parameters: scale not given: the % may be the effect or the level left
[10] = tested on: Rattus norvegicus; experiment: Drug metabolism in Lewis rat blood assessed as concentration of phosphate ester metabolite formation at 2 mg/kg, po measured at 4 hrs by LC-MS/MS analysis; settings: in vivo
[11] = Drug metabolism in Balb/c mouse blood assessed as concentration of phosphate ester metabolite formation at 15 mg/kg, po measured at 4 hrs by LC-MS/MS analysis; assay type: ADME, organism-based; settings: in vivo
[12] = Drug metabolism in Balb/c mouse blood assessed as concentration of parent compound at 15 mg/kg, po measured at 24 hrs by LC-MS/MS analysis; assay type: ADME, organism-based; settings: read-out: Ct
[13] = Drug metabolism in Balb/c mouse blood assessed as concentration of parent compound at 1 mg/kg, po measured at 24 hrs by LC-MS/MS analysis; assay type: ADME, organism-based; settings: Balb/c, blood, read-out: Ct
[14] = tested on: Mus musculus; experiment: Reduction in circulating lymphocytes in Balb/c mouse blood at 1 mg/kg, po measured at 4 hrs by hematology analyzer based analysis; assay type: functional; parameters: scale not given: the % may be the effect or the level left
[15] = Drug metabolism in Balb/c mouse blood assessed as concentration of phosphate ester metabolite formation at 1 mg/kg, po measured at 4 hrs by LC-MS/MS analysis; assay type: ADME, organism-based; settings: in vivo
[16] = Ratio of drug metabolism in Balb/c mouse blood assessed as phosphate ester metabolite to parent drug at 15 mg/kg, po measured at 24 hrs by LC-MS/MS analysis; assay type: ADME, organism-based; settings: in vivo
[17] = tested on: Mus musculus; experiment: Reduction in circulating lymphocytes in Balb/c mouse blood at 1 mg/kg, po measured at 24 hrs by hematology analyzer based analysis; assay type: functional; parameters: scale not given: the % may be the effect or the level left
[18] = tested on: Mus musculus; experiment: Reduction in circulating lymphocytes in Balb/c mouse blood at 15 mg/kg, po measured at 24 hrs by hematology analyzer based analysis; assay type: functional; parameters: scale not given: the % may be the effect or the level left
[19] = Drug metabolism in Balb/c mouse blood assessed as concentration of phosphate ester metabolite formation at 1 mg/kg, po measured at 24 hrs by LC-MS/MS analysis; assay type: ADME, organism-based; settings: in vivo
[20] = tested on: Mus musculus; experiment: Reduction in circulating lymphocytes in Balb/c mouse blood at 15 mg/kg, po measured at 4 hrs by hematology analyzer based analysis; assay type: functional; parameters: scale not given: the % may be the effect or the level left
[21] = Ratio of drug metabolism in Balb/c mouse blood assessed as phosphate ester metabolite to parent drug at 1 mg/kg, po measured at 24 hrs by LC-MS/MS analysis; assay type: ADME, organism-based; settings: in vivo
[22] = Drug metabolism in Balb/c mouse blood assessed as concentration of parent compound at 1 mg/kg, po measured at 4 hrs by LC-MS/MS analysis; assay type: ADME, organism-based; settings: Balb/c, blood, read-out: Ct
[23] = Drug metabolism in Balb/c mouse blood assessed as concentration of phosphate ester metabolite formation at 15 mg/kg, po measured at 24 hrs by LC-MS/MS analysis; assay type: ADME, organism-based; settings: in vivo
[24] = Drug metabolism in Balb/c mouse blood assessed as concentration of parent compound at 15 mg/kg, po measured at 4 hrs by LC-MS/MS analysis; assay type: ADME, organism-based; settings: read-out: Ct
[25] = Drug metabolism in Balb/c mouse blood assessed as concentration of phosphate ester metabolite formation at 50 mg/kg, po measured at 4 hrs by LC-MS/MS analysis; assay type: ADME, organism-based; settings: in vivo
[26] = Ratio of drug metabolism in Balb/c mouse blood assessed as phosphate ester metabolite to parent drug at 30 mg/kg, po measured at 24 hrs by LC-MS/MS analysis; settings: in vivo
[27] = Drug metabolism in Balb/c mouse blood assessed as concentration of phosphate ester metabolite formation at 50 mg/kg, po measured at 24 hrs by LC-MS/MS analysis; assay type: ADME, organism-based; settings: in vivo
[28] = tested on: Mus musculus; experiment: Reduction in circulating lymphocytes in Balb/c mouse blood at 50 mg/kg, po measured at 4 hrs by hematology analyzer based analysis; assay type: functional; parameters: scale not given: the % may be the effect or the level left
[29] = tested on: Mus musculus; experiment: Reduction in circulating lymphocytes in Balb/c mouse blood at 50 mg/kg, po measured at 24 hrs by hematology analyzer based analysis; assay type: functional; parameters: scale not given: the % may be the effect or the level left
[30] = Drug metabolism in Balb/c mouse blood assessed as concentration of parent compound at 50 mg/kg, po measured at 24 hrs by LC-MS/MS analysis; assay type: ADME, organism-based; settings: read-out: Ct
[31] = Drug metabolism in Balb/c mouse blood assessed as concentration of parent compound at 50 mg/kg, po measured at 4 hrs by LC-MS/MS analysis; assay type: ADME, organism-based; settings: read-out: Ct
[32] = Pulmonary toxicity in Lewis rat assessed as elevation of BAL protein level at 25 mg/kg by advia1800 chemistry analyzer; assay type: organism-based; settings: in vivo
[33] = Cardiotoxicity in human iPSC derived cardiomyocytes assessed as reduction in beating rate at 1 nM measured over 2 hrs by multi-electrode array relative to control; assay type: toxicity, cell-based; parameters: scale not given: the % may be the effect or the level left; settings: stem cell-derived cardiomyocyte, 0.001 µM
[34] = tested on: Cerebellar cortex; experiment: Induction of remyelination in lysophosphatidylcholine-induced demyelination in wild-type CD1 mouse organotypic cerebellar slice assessed as myelination index at 0.01 to 10 nM incubated for 7 days by immunohistochemistry based three-dimensional brain cell culture assay (reference value: 50%); assay type: functional; settings: dose 0.01-10 nM, time 7 day
[35] = tested on: Cerebellar cortex; experiment: Induction of remyelination in lysophosphatidylcholine-induced demyelination in wild-type CD1 mouse organotypic cerebellar slice at 0.01 to 10 nM incubated for 7 days by immunohistochemistry based three-dimensional brain cell culture assay; assay type: functional, tissue-based; settings: dose 0.01-10 nM, time 7.0 day
[36] = biological target: T1, Sphingosine 1-phosphate receptor 4 (Homo sapiens, UniProt O95977); experiment: Agonist activity at human recombinant S1P4 expressed in CHO cell membranes assessed as stimulation of [35S]-GTPgammaS binding measured after 45 mins by liquid scintillation counting assay; assay type: functional, Cell membrane
T1 sequence (O95977 whole entry): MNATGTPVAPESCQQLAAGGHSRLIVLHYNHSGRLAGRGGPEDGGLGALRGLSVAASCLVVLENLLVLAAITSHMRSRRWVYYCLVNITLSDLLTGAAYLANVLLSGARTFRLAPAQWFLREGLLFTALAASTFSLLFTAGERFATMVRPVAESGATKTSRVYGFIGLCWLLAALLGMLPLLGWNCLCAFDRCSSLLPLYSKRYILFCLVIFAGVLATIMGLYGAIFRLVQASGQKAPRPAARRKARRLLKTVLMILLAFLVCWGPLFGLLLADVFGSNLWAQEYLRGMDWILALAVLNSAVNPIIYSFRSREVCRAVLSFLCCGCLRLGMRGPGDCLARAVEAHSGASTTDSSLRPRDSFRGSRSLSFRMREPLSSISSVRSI

[37] = Cardiotoxicity in human iPSC derived cardiomyocytes assessed as reduction in beating rate at 10 nM measured over 2 hrs by multi-electrode array relative to control; assay type: toxicity, cell-based; parameters: scale not given: the % may be the effect or the level left; settings: stem cell-derived cardiomyocyte, 0.01 µM
[38] = biological target: Sphingosine 1-phosphate receptor 3 (Homo sapiens, UniProt Q99500); experiment: Agonist activity at human recombinant S1P3 expressed in CHO cell membranes assessed as stimulation of [35S]-GTPgammaS binding measured after 45 mins by liquid scintillation counting assay; parameters: species or system Cell membrane
Sphingosine 1-phosphate receptor 3, sequence (Q99500 whole entry): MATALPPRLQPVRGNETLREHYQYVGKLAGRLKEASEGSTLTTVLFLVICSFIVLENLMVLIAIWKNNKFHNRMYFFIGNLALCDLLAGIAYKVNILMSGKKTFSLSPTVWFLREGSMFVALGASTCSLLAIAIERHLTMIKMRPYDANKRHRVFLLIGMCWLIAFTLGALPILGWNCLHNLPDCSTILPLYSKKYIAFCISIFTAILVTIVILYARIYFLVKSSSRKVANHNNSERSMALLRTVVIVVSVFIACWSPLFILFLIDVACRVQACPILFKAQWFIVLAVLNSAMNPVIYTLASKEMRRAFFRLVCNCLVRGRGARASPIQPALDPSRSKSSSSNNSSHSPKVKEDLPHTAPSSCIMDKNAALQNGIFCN

COc1ccccc1CC[C@H]1CCc2cc([C@H]3CC[C@](N)(CO)C3)ccc2C1
Activity [1]: 10.5 mg/dL | ED50 [2]: 0.05 mg/kg | Activity [3]: 81% | concentration at 4 h [4]: 90 nM | Ratio [5]: 1 | concentration at 24 h [6]: 50 nM | half-life [7]: 20 h | Activity [8]: 29 mg/dL | Activity [9]: 46% | Drug metabolism [10]: 40 nM

COc1cccc(CC[C@H]2CCc3cc([C@H]4CC[C@](N)(CO)C4)ccc3C2)c1
Activity [1]: 10 mg/dL | ED50 [2]: 0.05 mg/kg | Activity [3]: 85% | concentration at 4 h [4]: 120 nM | Ratio [5]: 1.1 | concentration at 24 h [6]: 210 nM | half-life [7]: 49 h | Activity [8]: 17.5 mg/dL | Activity [9]: 44% | Drug metabolism [10]: 30 nM

N[C@]1(CO)CC[C@H](c2ccc3c(c2)CC[C@@H](CCc2ccccc2)C3)C1
Drug metabolism [11]: 110 nM | Activity [3]: 82% | concentration at 24 h [12]: 160 nM | concentration at 24 h [13]: 12 nM | concentration at 4 h [4]: 130 nM | Activity [14]: 10% | Ratio [5]: 6 | Drug metabolism ([15]; BLD = below limit of detection): Bld | Ratio [16]: 2.3 | concentration at 24 h [6]: 140 nM | half-life [7]: > 75 h | Activity [17]: 52% | Activity [9]: 43% | Drug metabolism [10]: 150 nM | Activity [18]: 88% | Drug metabolism [19]: 34 nM | Activity [20]: 81% | Ratio [21]: 2.8 | concentration at 4 h [22]: 13 nM | Drug metabolism [23]: 360 nM | concentration at 4 h [24]: 150 nM

N[C@]1(CO)CC[C@H](c2ccc3c(c2)CC[C@H](Cc2ccccc2)C3)C1
Drug metabolism [25]: 480 nM | concentration at 24 h [13]: 9 nM | Activity [14]: 21% | Drug metabolism [15]: 12 nM | Ratio [26]: 1 | Drug metabolism [27]: 310 nM | Activity [17]: 15% | Activity [28]: 83% | Drug metabolism [19]: 11 nM | Activity [29]: 78% | concentration at 24 h [30]: 300 nM | Ratio [21]: 1.2 | concentration at 4 h [22]: 28 nM | concentration at 4 h [31]: 1800 nM

COc1ccc(CC[C@@H]2CCc3cc([C@H]4CC[C@](N)(CO)C4)ccc3C2)cc1
ED50 [2]: 0.5 mg/kg | Activity [3]: 81% | concentration at 4 h [4]: 190 nM | Ratio [5]: 0.4 | concentration at 24 h [6]: 40 nM | half-life [7]: 11 h | Activity [32]: 26 mg/dL | Activity [9]: 21% | Drug metabolism [10]: 10 nM

CCCCCCCCc1ccc(CC[C@](N)(CO)COP(=O)(O)O)cc1 [FTY720-P]
Activity [33]: 38% | Activity [34]: 100% | Activity [35]: Active | EC50 [36]: 1.6 nM | Activity [37]: 62%

COc1ccc(CC[C@H]2CCc3cc([C@H]4CC[C@](N)(CO)C4)ccc3C2)cc1
ED50 [2]: 0.6 mg/kg | Activity [3]: 84% | concentration at 4 h [4]: 170 nM | Ratio [5]: 0.75 | concentration at 24 h [6]: 40 nM | half-life [7]: 7 h | Activity [32]: 24.3 mg/dL | Activity [9]: 33% | Drug metabolism [10]: 10 nM

CCCCCC[C@@H]1CCc2cc([C@H]3CC[C@](N)(COP(=O)(O)O)C3)ccc2C1
EC50 [38]: > 1000 nM
